Measurements from article PMC10255231, “Cytotoxic, Anti-Hemolytic, and Antioxidant Activities of Ruta chalepensis L. (Rutaceae) Extract, Fractions, and Isolated Compounds” (Plants, 2023).
In brackets after ≈: the same amount, converted by molar mass.

How the values were obtained:
VERO cells = assay: MTT cell viability assay, normal VERO cells; assay type: cell-based, African green monkey; conditions: Chlorocebus sabaeus, 72 h
Description: (§1) The human hepatocellular carcinoma cell line HEP-G2 (ATCC HB-8065) and the monkey kidney epithelial cell line VERO (ATCC CCL-81) were obtained from the Laboratory of Immunology and Virology in FCB at UANL (FCB-UANL), México, and cultured in DMEM, supplemented with 10% heat-inactivated FBS, 2% NaHCO3, and HEPES [57]. Murine lymphoma L5178Y-R cells (ATCC CRL-1722) and human peripheral blood mononuclear cells (PBMC) were maintained in RPMI-1640 culture medium, supplemented with 10% heat-inactivated FBS and 1% antibiotic/antimycotic solution [26]. Assays were conducted with adherent HEP-G2 and VERO cells on flat-bottom microplates and non-adherent L5178Y-R and PBMC cells were evaluated on round-bottom microplates.
(§2) Cells were cultured at 37 °C and 5% CO2 in 95% air in a humidified incubator, in the presence or absence of treatments for 72 h. After which they were incubated with MTT (0.5 mg/mL final concentration) at 37 °C in 5% CO2 for 3 h and supernatants were discarded after the incubation period. Resulting formazan crystals were dissolved in DMSO, and optical densities (OD) were measured at 540 nm, using a microplate reader (Molecular Devices Corporation in Palo Alto, CA). In addition, […] (IC50) values were determined after 72 h incubation with treatments at concentrations ranging from 7.81 µg/mL to 1000 µg/mL and ODs were measured at 570 nm on a microplate reader (Molecular Devices Corporation). The positive control consisted of 0.05 µg/mL VS and the negative control was culture medium alone. All treatments were diluted in DMSO to a final well test concentration not exceeding 0.5% (v/v). Cell viability was determined using the following Formula (2):(2) Cell viability %=OD570nmTreatment/OD570nmNegative control×100

HEP-G2 cells = assay: MTT cell viability assay, HEP-G2 tumor cells; assay type: cell-based; conditions: Homo sapiens, HepG2, 72 h
Description: as §1, §2
To determine the selectivity index (SI) for each treatment, we divided the IC50 of […]. SI was assessed for adherent cells (non-tumor/tumor) and for non-adherent cells (non-tumor/tumor). […] SI was calculated using the following Formula (3):(3) SI=IC50 Normal Cells/IC50 Tumor Cells

PBMC = assay: MTT cell viability assay, normal PBMC; assay type: cell-based; conditions: Homo sapiens, 72 h, normal cells
Description: as §1, §2

human red blood cells [1] = assay: Hemolytic activity test; assay type: cell-based; conditions: human erythrocytes, PBS pH 7.4; for IC50: Erythrocyte
Experimental: The hemolytic activity was assessed using the hemolysis test at treatment concentrations ranged from 7.81 µg/mL to 1000 µg/mL in PBS at pH 7.4. IC50 values were defined as the sample concentration needed to cause 50% hemolysis of human red blood cells. The percentage of hemolysis was determined by measuring ODs at 540 nm as follows (4):(4) Hemolysis %=OD540nm Treatment/OD540nm Positive control×100

human red blood cells [2] = assay: Anti-hemolytic activity test (AAPH inhibition); assay type: cell-based; conditions: human erythrocytes, AAPH 150 mM, PBS pH 7.4
Experimental: The AAPH inhibition test was used to determine the anti-hemolytic activity, as previously reported. Hemolysis was induced by the AAPH radical (150 mM in PBS) as a positive control. Treatment concentrations ranged from 7.81 µg/mL to 1000 µg/mL in PBS at pH 7.4 plus AAPH. IC50 values were defined as the sample concentration needed to cause 50% hemolysis of human red blood cells. The anti-hemolytic activity was evaluated using the following Formula (5):(5) % Anti−hemolytic Activity=1−OD570nm Treatment/OD570nm Positive control×100

L5178Y-R cells = assay: MTT cell viability assay, L5178Y-R lymphoma cells; assay type: cell-based, murine; conditions: Mus musculus, 72 h, tumor cells
Description: as §1
Cells were cultured at 37 °C and 5% CO2 in 95% air in a humidified incubator, in the presence or absence of treatments for 72 h. […] Resulting formazan crystals were dissolved in DMSO, and optical densities (OD) were measured at 540 nm, using a microplate reader (Molecular Devices Corporation in Palo Alto, CA). […] Cell viability was determined using the following Formula (2):(2) Cell viability %=OD570nmTreatment/OD570nmNegative control×100
To determine the selectivity index (SI) for each treatment, we divided the IC50 of […]. SI was assessed for adherent cells (non-tumor/tumor) and for non-adherent cells (non-tumor/tumor). […]

Row | Structure (SMILES) | IC50 (VERO cells) | IC50 (HEP-G2 cells) | IC50 (PBMC) | IC50 (human red blood cells [1]) | Hemolytic Activity IC50 (human red blood cells [1]) | Anti-Hemolytic Activity IC50 (human red blood cells [2]) | IC50 (human red blood cells [2]; Erythrocyte) | IC50 (L5178Y-R cells)
1 | C=CC(C)(C)c1cc2cc3c(cc2oc1=O)OC(C(C)(C)OC(C)=O)C3 (stereo not drawn) [RTM, Rutamarin] | 430 ± 4.07 µg/mL (≈ 1210 µM) | 130 ± 3.68 µg/mL (≈ 364 µM) | 151 ± 10.1 µg/mL (≈ 424 µM) | > 1500 µg/mL | did not show significant hemolytic activity | did not exhibit any anti-hemolytic activity | – | –
2 | C=CC(C)(C)c1cc2cc3ccoc3cc2oc1=O [CHL, Chalepensin] | 387 ± 9.24 µg/mL (≈ 1520 µM) | 76.2 ± 2.85 µg/mL (≈ 300 µM) | 226 ± 5.67 µg/mL (≈ 891 µM) | 101 ± 4.2 µg/mL (≈ 397 µM) | did not show significant hemolytic activity | – | 180 ± 4.76 µg/mL (≈ 707 µM) | –
3 | Cn1c(-c2ccc3c(c2)OCO3)cc(=O)c2ccccc21 [GRV, Graveoline] | 179 ± 7.39 µg/mL (≈ 640 µM) | 54.6 ± 3.34 µg/mL (≈ 196 µM) | 159 ± 30.6 µg/mL (≈ 569 µM) | 57.6 ± 11.3 µg/mL (≈ 206 µM) | – | did not exhibit any anti-hemolytic activity | – | < 50 µg/mL
